Like-named read-outs stand apart in the source and are kept apart here.
What was measured:
GLUT1 [1] = molecular target: T1, GLUT1 (Homo sapiens, UniProt P11166); parameters: method as in PMID 33390018; details: CAL27 cells; cited from earlier work
T1 construct: host or cells: CAL27 squamous cell carcinoma cells
T1 sequence (P11166 1-492): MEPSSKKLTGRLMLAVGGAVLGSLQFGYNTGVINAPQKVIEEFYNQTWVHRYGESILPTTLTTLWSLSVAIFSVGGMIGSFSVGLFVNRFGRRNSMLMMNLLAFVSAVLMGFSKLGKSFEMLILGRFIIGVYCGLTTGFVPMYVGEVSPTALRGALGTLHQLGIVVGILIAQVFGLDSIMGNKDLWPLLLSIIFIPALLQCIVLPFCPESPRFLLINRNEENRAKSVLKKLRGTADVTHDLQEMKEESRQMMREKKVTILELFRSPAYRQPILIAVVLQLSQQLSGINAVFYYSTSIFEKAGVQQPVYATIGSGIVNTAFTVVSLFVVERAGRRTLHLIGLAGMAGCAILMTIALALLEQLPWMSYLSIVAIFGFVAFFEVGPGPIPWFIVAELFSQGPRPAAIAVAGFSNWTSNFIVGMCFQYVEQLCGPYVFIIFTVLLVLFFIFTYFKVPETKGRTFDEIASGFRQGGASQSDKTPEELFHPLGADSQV

GLUT1 [2] = molecular target: T1, GLUT1; assay: Competition for GLUT1 binding with D-[14C]-glucose in CAL27 cells; assay type: cell-based; details: for IC50: 5 min at r.t., 1.8 μM D-[14C]-glucose, compounds 0.5–1400 μM, read-out: IC50, inhibition of D-[14C]-glucose (GLUT1 binding affinity)
Protocol: (§1) CAL27 squamous cell carcinoma cells (ATCC CRL-2095) were purchased from the American Type Culture Collection (ATCC, Manassas, VA, USA). CAL27 cells were cultured in Dulbecco’s modified Eagle medium (DMEM; Gibco, ThermoFisher Scientific, Waltham, MA, USA) supplemented with L-glutamine (2.0 mM; ThermoFisher Scientific, Waltham, MA, USA), heat-inactivated fetal bovine serum (10%; Gibco, ThermoFisher Scientific, Waltham, MA, USA), and penicillin (50 U/mL)–streptomycin (50 μg/mL) solution (ThermoFisher Scientific, Waltham, MA, USA). CAL27 cells (passages 6–10) were seeded at the density of 5 × 10^5 cells/wells onto 24-well plates. The cells were used in affinity and uptake studies 2 days after seeding. The culture medium was removed, and the cells were washed with prewarmed Hank’s balanced salt solution (HBSS) without glucose (HBSS; 125 mM NaCl, 4.8 mM KCl, 1.2 mM MgSO4, 1.3 mM KH2PO4, 1.3 mM CaCl2, and 25 mM HEPES adjusted to pH 7.4). The cells were then incubated with HBSS at 37 °C for 10 min before the experiments.
The GLUT1-binding ability of the studied compounds was performed by using a known radiolabeled GLUT1 substrate, D-[^14C]-glucose (PerkinElmer, Waltham, MA, USA). Briefly, after preincubation with 500 μL of prewarmed glucose free HBSS, the cells were incubated at r.t. for 5 min with studied compounds (0.5–1400 μM) containing 1.8 μM (0.1 mCi/mL) of D-[^14C]-glucose in glucose free HBSS (250 μL) and D-[^14C]-glucose as blank. The reaction was stopped with ice-cold buffer, and the cells were washed two times with ice-cold buffer on the ice bath, lysed with 250 μL of 1% perchloric acid, and mixed with 1.0 mL of emulsifier safe cocktail (PerkinElmer, Waltham, MA, USA). The radioactivity was measured by a liquid scintillation counter (MicroBeta[2] counter, PerkinElmer, Waltham, MA, USA), (Figure S12). Half-maximal inhibitory concentration (IC50) was calculated by nonlinear regression analysis.

CAL27 cell line = assay: Concentration-dependent cell uptake in CAL27 cells (LC-MS/MS); assay type: cell-based, human; details: 5–400 μM, 5 min; for Km: read-out: Km of cellular uptake
Protocol: as §1
The cells were first preincubated as described above. The cell uptake of these novel compounds was studied by adding 5–400 μM of studied compounds in 250 μL of prewarmed glucose free HBSS buffer on top of the cell layer and incubating the cells at r.t. for 5 min, based on the optimal performance of D-[^14C]-glucose under these conditions. After incubation, the reaction was stopped with ice-cold buffer; the cells were then washed and lysed as described above.
For the LC-MS/MS analysis, an aliquot was taken from the lysates and diluted with acidified acetonitrile (0.1% formic acid) 1:1, including internal standard (IS). FDG-Tz was used as an internal standard for FDR-Tz, and vice versa. After protein precipitation, the samples were centrifuged for 10 min with 10,000 × g at 4 °C. The supernatant was then collected and transferred to vials for LC-MS/MS analysis.
The samples were analyzed with LC-MS/MS coupled with an Agilent 1200 series Rapid Resolution LC System (Agilent Technologies, Waldbronn, Germany) and Agilent 6410 Triple Quadrupole with an electrospray ionization (ESI) (Agilent Technologies, Palo Alto, CA, USA). The samples were injected (5 μL) into the reversed-phase HPLC column (Zorbax Eclipse XDB-C18 Rapid Resolution 4.6 × 50 mm, […], Agilent Technologies, Palo Alto, CA, USA). The aqueous mobile phase was 0.1% formic acid in water (A), while the organic mobile phase was 0.1% formic acid in acetonitrile (B).
The column temperature was 40 °C and the flow rate of 0.5 mL/min was used, with the following gradient 0–4 min: 5% → 95% B, 4–6 min: 95% B, 6–6.1 min: 95% → 5% B, 6.1–8 min: 5% B. The following instrument optimizations were used: 300 °C sheath gas heat, 6.5 L/min drying gas flow, 25 psi nebulizer pressure, and 4000 V capillary voltage, respectively. Detection was performed by using multiple reaction monitoring (MRM) with the following transitions: m/z 425 → 261 for FDG-Tz and m/z 395 → 261 for FDR-Tz.
The lower limit of quantification (LLOQ) for both studied compounds was 5 nM. These LC-MS/MS methods were also selective, accurate (RSD < 15%) and precise (RSD < 15%) over the range 5.0–2500 nM, with good linearity (R^2 > 0.993).
Three replicates were analyzed from each concentration, and the statistical analyses were performed using GraphPad Prism v.5.03 software (GraphPad Software, San Diego, CA, USA).

Row | IC50 (GLUT1 [2]) [µM] | Fold higher affinity for GLUT1 compared to FDG-Tz (GLUT1 [2]; ratio of IC50 values) [times] | Compound | IC50 (GLUT1 [1]) [µM] | Concentration dependence of cellular uptake (shape of curve) (CAL27 cell line) | Vmax of cellular uptake (CAL27 cell line) | Km (CAL27 cell line) [µM]
1 | – | – | OC[C@H]1OC(O)[C@H](O)[C@@H](O)[C@@H]1O (stereo partly drawn) [D-glucose] | > 1000 | – | – | –
2 | 324 | – | O=C(CON=C[C@H](F)[C@@H](O)[C@H](O)C(O)CO)NCc1ccc(-c2nncnn2)cc1 (stereo partly drawn) [FDG-Tz, N-(4-(1,2,4,5-tetrazin-3-yl)benzyl)-2-((((2S,3S,4R)-2-fluoro-3,4,5,6-tetrahydroxyhexylidene)amino)oxy)acetamide] | – | concentration-dependent | 63.2 ± 8.5 pmol/min/mg of protein | 27.6 ± 13.8
3 | 22.4 | ~15 | O=C(CON=C[C@@H](O)[C@@H](O)[C@@H](O)CF)NCc1ccc(-c2nncnn2)cc1 [FDR-Tz, N-(4-(1,2,4,5-tetrazin-3-yl)benzyl)-2-((((2R,3R,4R)-5-fluoro-2,3,4-trihydroxypentylidene)amino)oxy)acetamide, reference compound] | – | – | 27.8 ± 3.7 pmol/min/mg of protein | 3.6 ± 7.8
